Laboratory results: ChEMBL document CHEMBL1909570, “Synthesis and antibacterial activity of N4-mono alkyl derivatives of novel glycopeptide LYV07ww01” (2011)
≈ marks a conversion by molar mass, not a printed value.

Assays:
Type in all cases: functional
Staphylococcus aureus [1] = experiment: Antibacterial activity against Staphylococcus aureus 26003 by CLSI agar microdilution method
Streptococcus pneumoniae [2] = experiment: Antibacterial activity against Streptococcus pneumoniae 31002 by CLSI agar microdilution method
Staphylococcus = experiment: Antibacterial activity against Staphylococcus albus 26101 by CLSI agar microdilution method
Enterococcus faecium [3] = experiment: Antibacterial activity against Enterococcus faecium 32220 by CLSI agar microdilution method
Streptococcus = experiment: Antibacterial activity against Streptococcus gamma 32206 by CLSI agar microdilution method
[4] = test system: Staphylococcus epidermidis; experiment: Antibacterial activity against Staphylococcus epidermidis 26069 by CLSI agar microdilution method
Staphylococcus aureus [5] = experiment: microbe, parasite or virus in culture; conditions: ATCC 25923
Description: Antibacterial activity against methicillin-sensitive Staphylococcus aureus ATCC 25923 by CLSI agar microdilution method

Staphylococcus aureus [6] = experiment: microbe, parasite or virus in culture; conditions: ATCC 33591
Description: Antibacterial activity against methicillin-resistant Staphylococcus aureus ATCC 33591 by CLSI agar microdilution method

Enterococcus faecalis [7] = experiment: microbe, parasite or virus in culture; conditions: ATCC 29212
Description: Antibacterial activity against vancomycin-sensitive Enterococcus faecalis ATCC 29212 by CLSI agar microdilution method

Enterococcus faecalis [8] = experiment: microbe, parasite or virus in culture; conditions: ATCC 51299
Enterococcus faecium [9] = experiment: Antibacterial activity against vancomycin-sensitive Enterococcus faecium ATCC 35667 by CLSI agar microdilution method
Enterococcus faecium [10] = experiment: Antibacterial activity against vancomycin-resistant Enterococcus faecium MEFA 0039 by CLSI agar microdilution method
Streptococcus pneumoniae [11] = experiment: Antibacterial activity against penicillin-intermediate Streptococcus pneumoniae ATCC 49619 by CLSI broth microdilution method
Streptococcus pneumoniae [12] = experiment: Antibacterial activity against penicillin-resistant Streptococcus pneumoniae MSPN 0003 by CLSI broth microdilution method
Enterococcus faecium [13] = experiment: Antibacterial activity against vancomycin-sensitive Enterococcus faecium ATCC 35667 by CLSI agar microdilution method relative to LYV07ww01
Enterococcus faecalis [14] = experiment: Antibacterial activity against vancomycin-resistant Enterococcus faecalis ATCC 51299 by CLSI agar microdilution method relative to vancomycin
Enterococcus faecium [15] = experiment: Antibacterial activity against vancomycin-resistant Enterococcus faecium MEFA 0039 by CLSI agar microdilution method relative to vancomycin

SMILES | MIC (Staphylococcus aureus [1]) [mg/L] | MIC (Streptococcus pneumoniae [2]) [mg/L] | MIC (Staphylococcus) [mg/L] | MIC (Enterococcus faecium [3]) [mg/L] | MIC (Streptococcus) [mg/L] | MIC [4] [mg/L] | MIC (Staphylococcus aureus [5]) [mg/L] | MIC (Staphylococcus aureus [6]) [mg/L] | MIC (Enterococcus faecalis [7]) [mg/L] | MIC (Enterococcus faecalis [8]) [mg/L] | MIC (Enterococcus faecium [9]) [mg/L] | MIC (Enterococcus faecium [10]) [mg/L] | MIC (Streptococcus pneumoniae [11]) [mg/L] | MIC (Streptococcus pneumoniae [12]) [mg/L] | fold change (FC) (Enterococcus faecium [13]) | fold change (FC) (Enterococcus faecalis [14]) | fold change (FC) (Enterococcus faecium [15])
CN[C@H](CC(C)C)C(=O)N[C@H]1C(=O)N[C@@H](CC(N)=O)C(=O)N[C@H]2C(=O)N[C@H]3C(=O)N[C@H](C(=O)N[C@@H](C(=O)O)c4cc(O)cc(O)c4-c4cc3ccc4O)[C@H](O[C@H]3C[C@](C)(N)[C@H](O)[C@H](C)O3)c3ccc(c(Cl)c3)Oc3cc2cc(c3O[C@@H]2O[C@H](CO)[C@@H](O)[C@H](O)[C@H]2O[C@H]2C[C@](C)(NCc3ccc(Br)cc3)[C@H](O)[C@H](C)O2)Oc2ccc(cc2Cl)[C@H]1O | 1.56 (≈ 0.886 µM) | 1.56 (≈ 0.886 µM) | 1.56 (≈ 0.886 µM) | 1.56 (≈ 0.886 µM) | 6.25 (≈ 3.55 µM) | 6.25 (≈ 3.55 µM) | 1 (≈ 0.568 µM) | 0.5 (≈ 0.284 µM) | 0.5 (≈ 0.284 µM) | 0.5 (≈ 0.284 µM) | ≤ 0.031 | 2 (≈ 1.14 µM) | ≤ 0.031 | ≤ 0.031 | 4 | 4 | 
CN[C@H](CC(C)C)C(=O)N[C@H]1C(=O)N[C@@H](CC(N)=O)C(=O)N[C@H]2C(=O)N[C@H]3C(=O)N[C@H](C(=O)N[C@@H](C(=O)O)c4cc(O)cc(O)c4-c4cc3ccc4O)[C@H](O[C@H]3C[C@](C)(N)[C@H](O)[C@H](C)O3)c3ccc(c(Cl)c3)Oc3cc2cc(c3O[C@@H]2O[C@H](CO)[C@@H](O)[C@H](O)[C@H]2O[C@H]2C[C@](C)(NCc3cccc(Br)c3)[C@H](O)[C@H](C)O2)Oc2ccc(cc2Cl)[C@H]1O | 0.78 (≈ 0.443 µM) | 0.78 (≈ 0.443 µM) | 0.78 (≈ 0.443 µM) | 0.78 (≈ 0.443 µM) | 3.13 (≈ 1.78 µM) | > 25 | 1 (≈ 0.568 µM) | 0.5 (≈ 0.284 µM) | 0.25 (≈ 0.142 µM) | 0.5 (≈ 0.284 µM) | ≤ 0.031 | 2 (≈ 1.14 µM) | ≤ 0.031 | ≤ 0.031 | 4 | 4 | 
CN[C@H](CC(C)C)C(=O)N[C@H]1C(=O)N[C@@H](CC(N)=O)C(=O)N[C@H]2C(=O)N[C@H]3C(=O)N[C@H](C(=O)N[C@@H](C(=O)O)c4cc(O)cc(O)c4-c4cc3ccc4O)[C@H](O[C@H]3C[C@](C)(N)[C@H](O)[C@H](C)O3)c3ccc(c(Cl)c3)Oc3cc2cc(c3O[C@@H]2O[C@H](CO)[C@@H](O)[C@H](O)[C@H]2O[C@H]2C[C@](C)(NCc3ccccc3Br)[C@H](O)[C@H](C)O2)Oc2ccc(cc2Cl)[C@H]1O | 1.56 (≈ 0.886 µM) | 0.195 (≈ 0.111 µM) | 1.56 (≈ 0.886 µM) | 1.56 (≈ 0.886 µM) | 0.39 (≈ 0.221 µM) | > 25 | 1 (≈ 0.568 µM) | 0.5 (≈ 0.284 µM) | 0.25 (≈ 0.142 µM) | 0.5 (≈ 0.284 µM) | 0.125 (≈ 0.071 µM) | 4 (≈ 2.27 µM) | ≤ 0.031 | 0.063 (≈ 0.0358 µM) |  | 4 | 4
CN[C@H](CC(C)C)C(=O)N[C@H]1C(=O)N[C@@H](CC(N)=O)C(=O)N[C@H]2C(=O)N[C@H]3C(=O)N[C@H](C(=O)N[C@@H](C(=O)O)c4cc(O)cc(O)c4-c4cc3ccc4O)[C@H](O[C@H]3C[C@](C)(N)[C@H](O)[C@H](C)O3)c3ccc(c(Cl)c3)Oc3cc2cc(c3O[C@@H]2O[C@H](CO)[C@@H](O)[C@H](O)[C@H]2O[C@H]2C[C@](C)(NCc3ccc(OC)cc3)[C@H](O)[C@H](C)O2)Oc2ccc(cc2Cl)[C@H]1O | 0.78 (≈ 0.455 µM) | 0.78 (≈ 0.455 µM) | 1.56 (≈ 0.911 µM) | 1.56 (≈ 0.911 µM) | 1.56 (≈ 0.911 µM) | 3.13 (≈ 1.83 µM) | 1 (≈ 0.584 µM) | 0.5 (≈ 0.292 µM) | 0.5 (≈ 0.292 µM) | 0.5 (≈ 0.292 µM) | 0.125 (≈ 0.073 µM) | 4 (≈ 2.34 µM) | 0.063 (≈ 0.0368 µM) | 0.125 (≈ 0.073 µM) |  | 4 | 4
CN[C@H](CC(C)C)C(=O)N[C@H]1C(=O)N[C@@H](CC(N)=O)C(=O)N[C@H]2C(=O)N[C@H]3C(=O)N[C@H](C(=O)N[C@H](C(=O)O)c4cc(O)cc(O)c4-c4cc3ccc4O)[C@H](O)c3ccc(c(Cl)c3)Oc3cc2cc(c3O[C@@H]2O[C@H](CO)[C@@H](O)[C@H](O)[C@H]2O[C@H]2C[C@](C)(N)[C@H](O)[C@H](C)O2)Oc2ccc(cc2Cl)[C@H]1O.Cl [VANCOMYCIN HYDROCHLORIDE] | 0.78 | 0.39 | 3.13 | 6.25 | 6.25 | > 25 |  |  | 1 | 8 | 0.25 | > 32 | 0.125 | 0.25 |  |  | 
CCCCN[C@@]1(C)C[C@H](O[C@H]2[C@H](Oc3c4cc5cc3Oc3ccc(cc3Cl)[C@@H](O[C@H]3C[C@](C)(N)[C@H](O)[C@H](C)O3)[C@@H]3NC(=O)[C@H](NC(=O)[C@@H]5NC(=O)[C@H](CC(N)=O)NC(=O)[C@H](NC(=O)[C@@H](CC(C)C)NC)[C@H](O)c5ccc(c(Cl)c5)O4)c4ccc(O)c(c4)-c4c(O)cc(O)cc4[C@H](C(=O)O)NC3=O)O[C@H](CO)[C@@H](O)[C@@H]2O)O[C@@H](C)[C@H]1O | 0.78 (≈ 0.473 µM) | 0.39 (≈ 0.237 µM) | 1.56 (≈ 0.946 µM) | > 25 | 1.56 (≈ 0.946 µM) | > 25 | 0.5 (≈ 0.303 µM) | 0.5 (≈ 0.303 µM) | 0.5 (≈ 0.303 µM) | 1 (≈ 0.607 µM) | 0.25 (≈ 0.152 µM) | 32 (≈ 19.4 µM) | 0.063 (≈ 0.0382 µM) | 0.125 (≈ 0.0758 µM) |  |  | 
CN[C@H](CC(C)C)C(=O)N[C@H]1C(=O)N[C@@H](CC(N)=O)C(=O)N[C@H]2C(=O)N[C@H]3C(=O)N[C@H](C(=O)N[C@@H](C(=O)O)c4cc(O)cc(O)c4-c4cc3ccc4O)[C@H](O[C@H]3C[C@](C)(N)[C@H](O)[C@H](C)O3)c3ccc(c(Cl)c3)Oc3cc2cc(c3O[C@@H]2O[C@H](CO)[C@@H](O)[C@H](O)[C@H]2O[C@H]2C[C@](C)(N)[C@H](O)[C@H](C)O2)Oc2ccc(cc2Cl)[C@H]1O | 0.39 (≈ 0.245 µM) | 0.098 (≈ 0.0615 µM) | 0.78 (≈ 0.49 µM) | 3.13 (≈ 1.97 µM) | 0.78 (≈ 0.49 µM) | > 25 | 0.25 (≈ 0.157 µM) | 0.125 (≈ 0.0785 µM) | 0.25 (≈ 0.157 µM) | 0.5 (≈ 0.314 µM) | 0.125 (≈ 0.0785 µM) | 8 (≈ 5.02 µM) | 0.063 (≈ 0.0396 µM) | 0.125 (≈ 0.0785 µM) |  |  | 
CCCCCCCCCN[C@@]1(C)C[C@H](O[C@H]2[C@H](Oc3c4cc5cc3Oc3ccc(cc3Cl)[C@@H](O[C@H]3C[C@](C)(N)[C@H](O)[C@H](C)O3)[C@@H]3NC(=O)[C@H](NC(=O)[C@@H]5NC(=O)[C@H](CC(N)=O)NC(=O)[C@H](NC(=O)[C@@H](CC(C)C)NC)[C@H](O)c5ccc(c(Cl)c5)O4)c4ccc(O)c(c4)-c4c(O)cc(O)cc4[C@H](C(=O)O)NC3=O)O[C@H](CO)[C@@H](O)[C@@H]2O)O[C@@H](C)[C@H]1O | 3.13 (≈ 1.82 µM) | 1.56 (≈ 0.908 µM) | 6.25 (≈ 3.64 µM) | > 25 | 1.56 (≈ 0.908 µM) | > 25 |  |  |  |  |  |  |  |  |  |  | 
CN[C@H](CC(C)C)C(=O)N[C@H]1C(=O)N[C@@H](CC(N)=O)C(=O)N[C@H]2C(=O)N[C@H]3C(=O)N[C@H](C(=O)N[C@@H](C(=O)O)c4cc(O)cc(O)c4-c4cc3ccc4O)[C@H](O[C@H]3C[C@](C)(N)[C@H](O)[C@H](C)O3)c3ccc(c(Cl)c3)Oc3cc2cc(c3O[C@@H]2O[C@H](CO)[C@@H](O)[C@H](O)[C@H]2O[C@H]2C[C@](C)(NCc3ccc(C(C)C)cc3)[C@H](O)[C@H](C)O2)Oc2ccc(cc2Cl)[C@H]1O | 1.56 (≈ 0.905 µM) | 0.78 (≈ 0.452 µM) | 1.56 (≈ 0.905 µM) | 1.56 (≈ 0.905 µM) | 1.56 (≈ 0.905 µM) | 6.25 (≈ 3.62 µM) | 1 (≈ 0.58 µM) | 0.5 (≈ 0.29 µM) | 0.5 (≈ 0.29 µM) | 0.5 (≈ 0.29 µM) | ≤ 0.031 | 2 (≈ 1.16 µM) | ≤ 0.031 | ≤ 0.031 | 4 | 4 | 
